Assay results reported in ChEMBL document CHEMBL4765407, “Design, synthesis and high antitumor potential of new unsymmetrical bisacridine derivatives towards human solid tumors, specifically pancreatic cancers and their unique ability to stabilize DNA G-quadruplexes” (Eur J Med Chem, 2020).

Columns and labels:
[1] = test system: MDA-MB-231; experiment: Cytotoxicity against human MDA-MB-231 cells assessed as reduction in cell viability measured after 72 hrs by SRB assay; format: functional, cell-based; details: MDA-MB-231, 72 h
[2] = test system: DU-145; experiment: Cytotoxicity against human DU-145 cells assessed as reduction in cell viability measured after 72 hrs by SRB assay; format: functional, cell-based; details: DU-145, 72 h
[3] = test system: HCT-116; experiment: Cytotoxicity against human HCT-116 cells assessed as reduction in cell viability measured after 72 hrs by SRB assay; format: functional, cell-based; details: HCT-116, 72 h
[4] = test system: PANC-1; experiment: Antitumour activity against human PANC-1 cells xenografted in Crl:Nu-Foxnl nu mouse assessed as inhibition of tumour growth at total effective dose of 16 mg/kg, iv measured on day 60; format: functional; details: PANC-1, iv, 1440 h, time 60 day, read-out: TGI
[5] = test system: ASPC1; experiment: Cytotoxicity against human ASPC1 cells assessed as reduction in cell viability measured after 72 hrs by SRB assay; format: functional, cell-based; details: ASPC1, 72 h
[6] = test system: Quadruplex DNA; experiment: Stabilization of 5'-FAM/3'-TAMRA labeled telomeric G4 quadruplex DNA F21T (unknown origin) assessed as change in melting temperature at 10 microM measured after 15 mins by FRET assay; format: nucleic-acid assay
[7] = test system: Capan-2; experiment: Cytotoxicity against human Capan-2 cells assessed as reduction in cell viability measured after 72 hrs by SRB assay; format: functional, cell-based; details: Capan-2, 72 h
[8] = test system: PANC-1; experiment: Antitumour activity against human PANC-1 cells xenografted in Crl:Nu-Foxnl nu mouse assessed as inhibition of tumour growth at total effective dose of 16 mg/kg, iv measured on day 38; format: functional; details: PANC-1, iv, 912 h, time 38 day, read-out: TGI
[9] = test system: BXPC-3; experiment: Cytotoxicity against human BXPC-3 cells assessed as reduction in cell viability measured after 72 hrs by SRB assay; format: functional, cell-based; details: BXPC-3, 72 h
[10] = test system: PANC-1; experiment: Cytotoxicity against human PANC-1 cells assessed as reduction in cell viability measured after 72 hrs by SRB assay; format: functional, cell-based; details: PANC-1, 72 h
[11] = test system: MCF7; experiment: Cytotoxicity against human MCF7 cells assessed as reduction in cell viability measured after 72 hrs by SRB assay; format: functional, cell-based; details: MCF7, 72 h
[12] = Stabilization of ds 5'-FAM-d(TATAGCTATA-HEG-TATAGCTATA)-TAMRA-3' (unknown origin) assessed as change in melting temperature at 10 microM measured after 15 mins by FRET assay; details: Homo sapiens
[13] = test system: MIA PaCa-2; experiment: Cytotoxicity against human MIA PaCa-2 cells assessed as reduction in cell viability measured after 72 hrs by SRB assay; format: functional, cell-based; details: MIA PaCa-2, 72 h
[14] = test system: Quadruplex DNA; experiment: Stabilization of 5'-FAM/3'-TAMRA labeled K-Ras G4 quadruplex DNA (unknown origin) assessed as change in melting temperature at 10 microM measured after 15 mins by FRET assay; format: nucleic-acid assay
[15] = test system: Quadruplex DNA; experiment: Stabilization of 5'-FAM/3'-TAMRA labeled c-Myc promoter G4 quadruplex DNA FPu18 (unknown origin) assessed as change in melting temperature at 10 microM measured after 15 mins by FRET assay; format: nucleic-acid assay
[16] = test system: PANC-1; experiment: Antitumour activity against human PANC-1 cells xenografted in Crl:Nu-Foxnl nu mouse assessed as inhibition of tumour growth at total effective dose of 20 mg/kg, iv measured on day 36; format: functional; details: PANC-1, iv, 864 h, time 36 day, read-out: TGI
[17] = test system: PC-3; experiment: Cytotoxicity against human PC-3 cells assessed as reduction in cell viability measured after 72 hrs by SRB assay; format: functional, cell-based; details: PC-3, 72 h
[18] = test system: UMUC3; experiment: Cytotoxicity against human UMUC3 cells assessed as reduction in cell viability measured after 72 hrs by SRB assay; format: functional, cell-based; details: UMUC3, 72 h
[19] = test system: MIA PaCa-2; experiment: Antitumour activity against human MIA PaCa-2 cells xenografted in Crl:Nu-Foxnl nu mouse assessed as inhibition of tumour growth at total effective dose of 8 mg/kg, ip measured on day 15; format: functional; details: MIA PaCa-2, ip, 360 h, time 15 day, read-out: TGI
[20] = test system: PANC-1; experiment: Antitumour activity against human PANC-1 cells xenografted in Crl:Nu-Foxnl nu mouse assessed as inhibition of tumour growth at total effective dose of 8 mg/kg, iv measured on day 32; format: functional; details: PANC-1, iv, 768 h, time 32 day, read-out: TGI
[21] = test system: UMUC3; experiment: Antitumour activity against human UMUC3 cells xenografted in Crl:Nu-Foxnl nu mouse assessed as inhibition of tumour growth at total effective dose of 28 mg/kg, iv measured on day 23; format: functional; details: 552 h, time 23 day, read-out: TGI
[22] = test system: HT-29; experiment: Cytotoxicity against human HT-29 cells assessed as reduction in cell viability measured after 72 hrs by SRB assay; format: functional, cell-based; details: HT-29, 72 h
[23] = test system: BXPC-3; experiment: Antitumour activity against human BXPC-3 cells xenografted in Crl:Nu-Foxnl nu mouse assessed as inhibition of tumour growth at total effective dose of 30 mg/kg, iv measured on day 37; format: functional; details: BXPC-3, iv, 888 h, time 37 day, read-out: TGI
[24] = test system: MIA PaCa-2; experiment: Antitumour activity against human MIA PaCa-2 cells xenografted in Crl:Nu-Foxnl nu mouse assessed as inhibition of tumour growth at total effective dose of 16 mg/kg, iv measured on day 26; format: functional; details: MIA PaCa-2, iv, 624 h, time 26 day, read-out: TGI
[25] = test system: PANC-1; experiment: Antitumour activity against human PANC-1 cells xenografted in Crl:Nu-Foxnl nu mouse assessed as inhibition of tumour growth at total effective dose of 16 mg/kg, iv measured on day 40; format: functional; details: PANC-1, iv, 960 h, time 40 day, read-out: TGI
[26] = test system: PANC-1; experiment: Antitumour activity against human PANC-1 cells xenografted in Crl:Nu-Foxnl nu mouse assessed as inhibition of tumour growth at total effective dose of 10 mg/kg, iv measured on day 31; format: functional; details: PANC-1, iv, 744 h, time 31 day, read-out: TGI
[27] = test system: MIA PaCa-2; experiment: Antitumour activity against human MIA PaCa-2 cells xenografted in Crl:Nu-Foxnl nu mouse assessed as inhibition of tumour growth at total effective dose of 42 mg/kg, iv measured on day 26; format: functional; details: MIA PaCa-2, iv, 624 h, time 26 day, read-out: TGI
[28] = test system: PANC-1; experiment: Antitumour activity against human PANC-1 cells xenografted in Crl:Nu-Foxnl nu mouse assessed as inhibition of tumour growth at total effective dose of 36 mg/kg, iv measured on day 45; format: functional; details: PANC-1, iv, 1080 h, time 45 day, read-out: TGI
[29] = test system: NCI-H460; experiment: Cytotoxicity against human NCI-H460 cells assessed as reduction in cell viability measured after 72 hrs by SRB assay; format: functional, cell-based; details: NCI-H460, 72 h
[30] = test system: W256; experiment: Antitumour activity against Walker 256 adenocarcinoma cells implanted in Wistar rat assessed as increase in animal survival rate by measuring T/C ratio at 0.65 mg/kg, ip qd for 3 days administered on day 3,4,5 after tumor cell transplantation; format: functional; details: time 3 day
[31] = test system: NCI-H460; experiment: Antitumour activity against human NCI-H460 cells xenografted in Crl:Nu-Foxnl nu mouse assessed as inhibition of tumour growth at total effective dose of 5 mg/kg, iv measured on day 15; format: functional; details: 360 h, time 15 day, read-out: TGI
[32] = test system: NCI-H460; experiment: Antitumour activity against human NCI-H460 cells xenografted in Crl:Nu-Foxnl nu mouse assessed as inhibition of tumour growth at total effective dose of 16 mg/kg, iv measured on day 14; format: functional; details: 336 h, time 14 day, read-out: TGI
[33] = test system: PANC-1; experiment: Antitumour activity against human PANC-1 cells xenografted in Crl:Nu-Foxnl nu mouse assessed as inhibition of tumour growth at total effective dose of 10 mg/kg, iv measured on day 45; format: functional; details: PANC-1, iv, 1080 h, time 45 day, read-out: TGI

**Q.** Which results are given for O=c1c2ccccc2n2cnc3ccc(NCCNc4c5ccccc5nc5cccc([N+](=O)[O-])c45)c1c32?
**A.** IC50 [1]: 27 nM; IC50 [2]: 40 nM; IC50 [3]: 102 nM; inhibition in vivo at 16 mg/kg [4]: 76%; IC50 [5]: 86 nM; ΔTm [6]: 31.6 °C; IC50 [7]: 44 nM; inhibition in vivo at 16 mg/kg [8]: 60%; IC50 [9]: 138 nM; IC50 [10]: 37 nM; IC50 [11]: 82 nM; ΔTm [12]: 10.4 °C; IC50 [13]: 64 nM; ΔTm [14]: 19.5 °C; ΔTm [15]: 19.3 °C

**Q.** With O=c1c2cc(O)ccc2n2cnc3ccc(NCCCN4CCN(CCCNc5c6ccccc6nc6cccc([N+](=O)[O-])c56)CC4)c1c32 as the molecule, how does the IC50 [1] read?
**A.** 19 nM

**Q.** What about the inhibition in vivo at 20 mg/kg [16] of the same molecule?
**A.** 59%

**Q.** And the IC50 [17]?
**A.** 35 nM

**Q.** What about the IC50 [2] of the same molecule?
**A.** 20 nM

**Q.** And the IC50 [18]?
**A.** 18 nM

**Q.** What about the inhibition in vivo at 8 mg/kg [19] of the same molecule?
**A.** 51%

**Q.** What about the inhibition in vivo at 8 mg/kg [20] of the same molecule?
**A.** 51%

**Q.** And the IC50 [3]?
**A.** 20 nM

**Q.** And the IC50 [5]?
**A.** 191 nM

**Q.** What about the inhibition in vivo at 28 mg/kg [21] of the same molecule?
**A.** 47%

**Q.** What about the ΔTm [6] of the same molecule?
**A.** 9.2 °C

**Q.** What about the IC50 [7] of the same molecule?
**A.** 43 nM

**Q.** What about the IC50 [22] of the same molecule?
**A.** 81 nM

**Q.** And the inhibition in vivo at 30 mg/kg [23]?
**A.** 64%

**Q.** What about the inhibition in vivo at 16 mg/kg [24] of the same molecule?
**A.** 29%

**Q.** And the inhibition in vivo at 16 mg/kg [25]?
**A.** 82%

**Q.** And the inhibition in vivo at 10 mg/kg [26]?
**A.** 71%

**Q.** And the IC50 [9]?
**A.** 164 nM

**Q.** And the inhibition in vivo at 42 mg/kg [27]?
**A.** 50%

**Q.** And the inhibition in vivo at 36 mg/kg [28]?
**A.** 90%

**Q.** And the IC50 [10]?
**A.** 24 nM

**Q.** What about the IC50 [11] of the same molecule?
**A.** 62 nM

**Q.** And the ΔTm [12]?
**A.** 3.8 °C

**Q.** And the IC50 [13]?
**A.** 21 nM

**Q.** What about the IC50 [29] of the same molecule?
**A.** 17 nM

**Q.** And the ΔTm [14]?
**A.** 22.3 °C

**Q.** What about the ΔTm [15] of the same molecule?
**A.** 28.5 °C

**Q.** Which IC50 [1] does the source give for CN(CCCNc1c2ccccc2nc2cccc([N+](=O)[O-])c12)CCCNc1ccc([N+](=O)[O-])c2[nH]c3ccccc3c(=O)c12 here?
**A.** 28 nM

**Q.** What about the IC50 [17] of the same molecule?
**A.** 51 nM

**Q.** What about the IC50 [2] of the same molecule?
**A.** 24 nM

**Q.** And the IC50 [18]?
**A.** 29 nM

**Q.** And the T/C [30]?
**A.** 450%

**Q.** What about the inhibition in vivo at 5 mg/kg [31] of the same molecule?
**A.** 14%

**Q.** And the IC50 [3]?
**A.** 260 nM

**Q.** What about the IC50 [5] of the same molecule?
**A.** 66 nM

**Q.** What about the ΔTm [6] of the same molecule?
**A.** 24.5 °C

**Q.** And the IC50 [22]?
**A.** 67 nM

**Q.** And the inhibition in vivo at 16 mg/kg [32]?
**A.** 35%

**Q.** What about the IC50 [10] of the same molecule?
**A.** 28 nM

**Q.** What about the IC50 [11] of the same molecule?
**A.** 695 nM

**Q.** And the inhibition in vivo at 10 mg/kg [33]?
**A.** 23%

**Q.** What about the IC50 [13] of the same molecule?
**A.** 103 nM

**Q.** What about the IC50 [29] of the same molecule?
**A.** 10 nM

**Q.** What about the ΔTm [14] of the same molecule?
**A.** 27.4 °C

**Q.** And the ΔTm [15]?
**A.** 19.4 °C
